From ChEMBL document CHEMBL3045772, “Amide derivatives of [6-acyl-2-benzothiazolinon-3-yl] acetic acids as potential analgesic and anti-inflammatory compounds” (Med Chem Res, 2010) come the findings set out here.

Molecules are shown by their SMILES. The source made the active and inactive calls. The calls are words filed in the database; no cut-off is given here.

The test system of the first series is Mus musculus. As to the kind of experiment: Anti-inflammatory activity in Mus musculus Swiss albino (mouse) assessed as inhibition of carrageenan-induced edema at 10 mg/kg, po pretreated 60 min before carrageenan-challenge measured after 90 min.
Conditions: not given
Type of series: functional. For orientation: The carrageenan paw model is a standard test of acute inflammation.
As to `COc1ccc2c(c1)c(CC(=O)O)c(C)n2C(=O)c1ccc(Cl)cc1` [INDOMETHACIN], the inhibition in vivo at 10 mg/kg worked out at 25.4%.

The next series relates to Mus musculus. As to the kind of experiment: Anti-inflammatory activity in Mus musculus Swiss albino (mouse) assessed as inhibition of carrageenan-induced edema at 100 mg/kg, po pretreated 60 min before carrageenan-challenge measured after 360 min. It is filed as functional.
Conditions: not given
On to `O=C(Cn1c(=O)sc2cc(C(=O)c3ccccc3F)ccc21)Nc1ccccc1`, for which the inhibition in vivo at 100 mg/kg came to 19.5%.
The same measure, in the same setting: as for `Cc1ccnc(NC(=O)Cn2c(=O)sc3cc(C(=O)c4ccccc4Cl)ccc32)c1`, the figure is 3.7%; as for `O=C(Cn1c(=O)sc2cc(C(=O)c3ccccc3Cl)ccc21)Nc1ccc(Cl)cc1`, 33.2%; as for `O=C(Cn1c(=O)sc2cc(C(=O)c3ccccc3F)ccc21)Nc1ccc(Cl)cc1`, 31.7%.

A further series has as its system Mus musculus. As to the kind of experiment: Anti-inflammatory activity in Mus musculus Swiss albino (mouse) assessed as inhibition of carrageenan-induced edema at 100 mg/kg, po pretreated 60 min before carrageenan-challenge measured after 270 min. Type of series: functional.
Conditions: not given
With `O=C(Cn1c(=O)sc2cc(C(=O)c3ccccc3F)ccc21)Nc1ccccc1`, the inhibition in vivo at 100 mg/kg turned out to be 22.6%.
The same measure, in the same setting: as for `Cc1ccnc(NC(=O)Cn2c(=O)sc3cc(C(=O)c4ccccc4Cl)ccc32)c1`, the figure is 5.1%.
With `O=C(Cn1c(=O)sc2cc(C(=O)c3ccccc3Cl)ccc21)Nc1ccc(Cl)cc1`, the inhibition in vivo at 100 mg/kg is 31.9%.
Consider `O=C(Cn1c(=O)sc2cc(C(=O)c3ccccc3F)ccc21)Nc1ccc(Cl)cc1`, for which the inhibition in vivo at 100 mg/kg came to 30.3%.

In the next series the test system is Mus musculus. As to the kind of experiment: Anti-inflammatory activity in Mus musculus Swiss albino (mouse) assessed as inhibition of carrageenan-induced edema at 100 mg/kg, po pretreated 60 min before carrageenan-challenge measured after 180 min. Type of series: functional.
Conditions: not given
Consider `O=C(Cn1c(=O)sc2cc(C(=O)c3ccccc3F)ccc21)Nc1ccccc1`, for which the inhibition in vivo at 100 mg/kg worked out at 23.5%.
Turning to `Cc1ccnc(NC(=O)Cn2c(=O)sc3cc(C(=O)c4ccccc4Cl)ccc32)c1`, the inhibition in vivo at 100 mg/kg was 3.5%.
On the same count and under the same terms, as for `O=C(Cn1c(=O)sc2cc(C(=O)c3ccccc3Cl)ccc21)Nc1ccc(Cl)cc1`, the figure is 28.4%; as for `O=C(Cn1c(=O)sc2cc(C(=O)c3ccccc3F)ccc21)Nc1ccc(Cl)cc1`, 29%.

The next series has as its system Mus musculus. As to the kind of experiment: Anti-inflammatory activity in Mus musculus Swiss albino (mouse) assessed as inhibition of carrageenan-induced edema at 100 mg/kg, po pretreated 60 min before carrageenan-challenge measured after 90 min.
Conditions: not given
It is filed as functional.
On to `O=C(Cn1c(=O)sc2cc(C(=O)c3ccccc3F)ccc21)Nc1ccccc1`, for which the inhibition in vivo at 100 mg/kg was 11.3%.
For the compound `Cc1ccnc(NC(=O)Cn2c(=O)sc3cc(C(=O)c4ccccc4Cl)ccc32)c1`, the inhibition in vivo at 100 mg/kg is 3.8%.
Same read-out and setting: as for `O=C(Cn1c(=O)sc2cc(C(=O)c3ccccc3Cl)ccc21)Nc1ccc(Cl)cc1`, the figure is 25.8%; as for `O=C(Cn1c(=O)sc2cc(C(=O)c3ccccc3F)ccc21)Nc1ccc(Cl)cc1`, 25.9%.

In a further series the test system is Mus musculus. As to the kind of experiment: Analgesic activity in Mus musculus Swiss albino (mouse) assessed as inhibition of p-benzoquinone-induced writhing at 100 mg/kg, po pretreated 60 min before p-benzoquinone challenge.
Conditions: not given
It is filed as functional. On the technique in general: An intraperitoneal irritant provokes the stretching counted in writhing tests.
Take `O=C(Cn1c(=O)sc2cc(C(=O)c3ccccc3F)ccc21)Nc1ccccc1`: the inhibition in vivo at 100 mg/kg was determined as 26.8%.
As for `Cc1ccnc(NC(=O)Cn2c(=O)sc3cc(C(=O)c4ccccc4Cl)ccc32)c1`, the inhibition in vivo at 100 mg/kg is 8.1%.
The same measure, in the same setting: as for `O=C(Cn1c(=O)sc2cc(C(=O)c3ccccc3Cl)ccc21)Nc1ccc(Cl)cc1`, the figure is 47.3%.
Still for that read-out and setting: as for `O=C(Cn1c(=O)sc2cc(C(=O)c3ccccc3F)ccc21)Nc1ccc(Cl)cc1`, the figure is 54.3%.

Another series concerns the target T1, Polyunsaturated fatty acid 5-lipoxygenase (Homo sapiens) (UniProt P09917).
T1 sequence (whole entry): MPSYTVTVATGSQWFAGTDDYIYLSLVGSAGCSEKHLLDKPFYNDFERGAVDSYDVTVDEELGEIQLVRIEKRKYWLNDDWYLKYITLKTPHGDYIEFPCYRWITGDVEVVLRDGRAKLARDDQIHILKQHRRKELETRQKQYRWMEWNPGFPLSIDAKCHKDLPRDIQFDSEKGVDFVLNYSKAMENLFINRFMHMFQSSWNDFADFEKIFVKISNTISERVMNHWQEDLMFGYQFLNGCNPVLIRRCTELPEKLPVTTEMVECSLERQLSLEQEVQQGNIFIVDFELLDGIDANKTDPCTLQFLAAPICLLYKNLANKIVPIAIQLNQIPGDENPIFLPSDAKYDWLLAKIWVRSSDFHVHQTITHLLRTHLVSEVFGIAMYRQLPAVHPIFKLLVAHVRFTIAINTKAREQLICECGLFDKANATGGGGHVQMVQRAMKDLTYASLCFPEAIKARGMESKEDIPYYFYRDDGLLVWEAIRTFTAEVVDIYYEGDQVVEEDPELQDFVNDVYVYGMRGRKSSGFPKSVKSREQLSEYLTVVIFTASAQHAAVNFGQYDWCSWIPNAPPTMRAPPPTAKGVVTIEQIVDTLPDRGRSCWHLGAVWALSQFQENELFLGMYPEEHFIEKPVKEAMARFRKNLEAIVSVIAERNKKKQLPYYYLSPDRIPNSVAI
As to the kind of experiment: Inhibition of 5-LOX (unknown origin) at 10 uM.
Conditions: not given
`O=C(Cn1c(=O)sc2cc(C(=O)c3ccccc3F)ccc21)Nc1ccccc1` came in with an inhibition of 24%.
Same read-out and setting: as for `Cc1ccnc(NC(=O)Cn2c(=O)sc3cc(C(=O)c4ccccc4Cl)ccc32)c1`, the figure is 11%.
With `O=C(Cn1c(=O)sc2cc(C(=O)c3ccccc3Cl)ccc21)Nc1ccc(Cl)cc1`, the inhibition entry is “inactive”.
Same read-out and setting: as for `O=C(Cn1c(=O)sc2cc(C(=O)c3ccccc3F)ccc21)Nc1ccc(Cl)cc1`, the entry is “inactive”.

In a further series the test system is Mus musculus. As to the kind of experiment: Gastrointestinal toxicity in Mus musculus Swiss albino (mouse) assessed as ratio of ulcer at 100 mg/kg, po measured after 2 hr. Type of series: organism-based. More on the design: dose 100 mg/kg, route oral. Particulars: in vivo.
In the case of `O=C(Cn1c(=O)sc2cc(C(=O)c3ccccc3F)ccc21)Nc1ccccc1`, the Activity entry is “Non-toxic”.
Regarding `Cc1ccnc(NC(=O)Cn2c(=O)sc3cc(C(=O)c4ccccc4Cl)ccc32)c1`, the Activity result is “Toxic”.
On the same count and under the same terms, as for `O=C(Cn1c(=O)sc2cc(C(=O)c3ccccc3Cl)ccc21)Nc1ccc(Cl)cc1`, the entry is “Non-toxic”; as for `O=C(Cn1c(=O)sc2cc(C(=O)c3ccccc3F)ccc21)Nc1ccc(Cl)cc1`, “Non-toxic”.

A further series has as its system Mus musculus. As to the kind of experiment: Anti-inflammatory activity in Mus musculus Swiss albino (mouse) assessed as inhibition of carrageenan-induced edema at 10 mg/kg, po pretreated 60 min before carrageenan-challenge measured after 360 min. It is filed as functional.
Conditions: not given
For the compound `COc1ccc2c(c1)c(CC(=O)O)c(C)n2C(=O)c1ccc(Cl)cc1` [INDOMETHACIN], the inhibition in vivo at 10 mg/kg worked out at 40.1%.

The test system of a further series is Mus musculus. As to the kind of experiment: Anti-inflammatory activity in Mus musculus Swiss albino (mouse) assessed as inhibition of carrageenan-induced edema at 10 mg/kg, po pretreated 60 min before carrageenan-challenge measured after 270 min. It is filed as functional.
Conditions: not given
With `COc1ccc2c(c1)c(CC(=O)O)c(C)n2C(=O)c1ccc(Cl)cc1` [INDOMETHACIN], the inhibition in vivo at 10 mg/kg came to 36.2%.

A further series concerns Mus musculus. As to the kind of experiment: Anti-inflammatory activity in Mus musculus Swiss albino (mouse) assessed as inhibition of carrageenan-induced edema at 10 mg/kg, po pretreated 60 min before carrageenan-challenge measured after 180 min.
Conditions: not given
Type of series: functional.
In the case of `COc1ccc2c(c1)c(CC(=O)O)c(C)n2C(=O)c1ccc(Cl)cc1` [INDOMETHACIN], the inhibition in vivo at 10 mg/kg stood at 30.7%.

The target of another series is T2, Prostaglandin G/H synthase 2 (Homo sapiens) (UniProt P35354).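 Further: human whole blood COX-2 activity read out as PGE2 level measured by enzyme immunoassay.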
T2 sequence (whole entry): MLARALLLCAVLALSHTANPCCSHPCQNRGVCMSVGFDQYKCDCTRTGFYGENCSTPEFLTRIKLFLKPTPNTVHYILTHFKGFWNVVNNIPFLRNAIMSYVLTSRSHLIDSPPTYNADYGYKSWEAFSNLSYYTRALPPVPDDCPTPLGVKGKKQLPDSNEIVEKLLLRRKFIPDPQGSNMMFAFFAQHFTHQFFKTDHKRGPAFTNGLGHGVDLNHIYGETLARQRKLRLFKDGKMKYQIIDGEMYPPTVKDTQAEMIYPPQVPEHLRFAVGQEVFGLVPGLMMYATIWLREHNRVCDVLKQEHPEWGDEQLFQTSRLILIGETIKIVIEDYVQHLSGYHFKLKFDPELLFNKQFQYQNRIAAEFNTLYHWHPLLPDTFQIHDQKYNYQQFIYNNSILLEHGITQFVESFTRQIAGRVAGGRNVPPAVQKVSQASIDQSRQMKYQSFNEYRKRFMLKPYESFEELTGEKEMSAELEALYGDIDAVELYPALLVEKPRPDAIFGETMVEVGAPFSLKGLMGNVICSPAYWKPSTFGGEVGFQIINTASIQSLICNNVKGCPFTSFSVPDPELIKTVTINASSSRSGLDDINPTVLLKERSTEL
To be noted: Blood, at 10 µM.
Description: Inhibition of cyclooxygenase-2 in Homo sapiens (human) whole blood assessed as PGE2 level at 10 uM by EIA
Consider `O=C(Cn1c(=O)sc2cc(C(=O)c3ccccc3F)ccc21)Nc1ccccc1`, for which the inhibition result was “inactive”.
Same read-out and setting: as for `Cc1ccnc(NC(=O)Cn2c(=O)sc3cc(C(=O)c4ccccc4Cl)ccc32)c1`, the entry is “inactive”; as for `O=C(Cn1c(=O)sc2cc(C(=O)c3ccccc3Cl)ccc21)Nc1ccc(Cl)cc1`, 53.1%; as for `O=C(Cn1c(=O)sc2cc(C(=O)c3ccccc3F)ccc21)Nc1ccc(Cl)cc1`, “inactive”.

For another series, the target named is Prostaglandin G/H synthase 1 (Homo sapiens) (UniProt P23219). To be noted: Blood, at 10 µM.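 Further: human whole blood assay, COX-1 activity read out as TXB2 level by enzyme immunoassay.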
Prostaglandin G/H synthase 1 (Homo sapiens), sequence (P23219 whole entry): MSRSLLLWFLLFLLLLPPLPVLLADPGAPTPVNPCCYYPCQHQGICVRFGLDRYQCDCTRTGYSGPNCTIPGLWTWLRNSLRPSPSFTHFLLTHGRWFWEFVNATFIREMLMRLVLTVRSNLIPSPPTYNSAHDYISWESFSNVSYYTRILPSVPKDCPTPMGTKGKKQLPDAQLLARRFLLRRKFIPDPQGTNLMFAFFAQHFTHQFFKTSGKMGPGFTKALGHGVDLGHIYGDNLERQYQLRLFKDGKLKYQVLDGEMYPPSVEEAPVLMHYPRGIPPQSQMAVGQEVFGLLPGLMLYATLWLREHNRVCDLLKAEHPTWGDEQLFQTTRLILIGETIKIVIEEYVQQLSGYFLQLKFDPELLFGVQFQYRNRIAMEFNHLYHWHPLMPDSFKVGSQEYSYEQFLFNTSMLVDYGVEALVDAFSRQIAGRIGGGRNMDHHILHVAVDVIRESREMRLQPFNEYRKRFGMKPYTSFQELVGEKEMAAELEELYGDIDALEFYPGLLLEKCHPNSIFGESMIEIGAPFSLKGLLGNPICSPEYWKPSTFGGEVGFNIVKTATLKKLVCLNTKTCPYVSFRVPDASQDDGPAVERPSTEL
Description: Inhibition of cyclooxygenase-1 in Homo sapiens (human) whole blood assessed as TXB2 level at 10 uM by EIA
Take `O=C(Cn1c(=O)sc2cc(C(=O)c3ccccc3F)ccc21)Nc1ccccc1`: the inhibition came out at 5.61%.
On the same count and under the same terms, as for `Cc1ccnc(NC(=O)Cn2c(=O)sc3cc(C(=O)c4ccccc4Cl)ccc32)c1`, the figure is 10.1%; as for `O=C(Cn1c(=O)sc2cc(C(=O)c3ccccc3Cl)ccc21)Nc1ccc(Cl)cc1`, 39.2%; as for `O=C(Cn1c(=O)sc2cc(C(=O)c3ccccc3F)ccc21)Nc1ccc(Cl)cc1`, 10.4%.

The term inhibition in vivo denotes the relative decrease from the control value, in per cent. A word on the inhibition: it is the relative decrease from the control value, in per cent.
